Measurements taken from paper PMC7767166, “Imidazole and Imidazolium Antibacterial Drugs Derived from Amino Acids” (Pharmaceuticals, 2020).
Like-named read-outs stand apart in the source and are kept apart here.

Columns and labels:
Bacillus subtilis 1904-E = assay: Bacterial growth inhibition assay (microdilution, OD 560 nm), MIC; type: cell-based; conditions: read-out: B. subtilis MIC
Protocol: (§1) The in vitro antibacterial activities of the synthesized compounds were examined against E. coli and B. subtilis. Bacteria were incubated in culture media with varying concentrations of the examined compound and the antibacterial properties were determined by observation of the optical density at 560 nm (bacteriostatic activity) and by the Resazurin cell viability assay (bactericidal activity). The corresponding minimal bactericidal concentration (MBC) and minimum inhibitory concentration (MIC) values that were obtained are summarized in Table 1 (please refer to Table S1 for MIC and MBC values in μM). Two bacterial strains were used in the antibacterial assays: Escherichia coli DH5α as a Gram-negative model and Bacillus subtilis 1904-E as a Gram-positive model. Both bacterial strains were donated to our laboratory and can be provided on request by contacting the corresponding authors. Both bacterial strains were incubated at 37 °C and the pre-inoculum incubation time was of 24 h. Liquid Luria-Bertani (LB) medium was used for E. coli DH5α and nutrient broth (NB) for B. subtilis. The bacteria cell bank suspensions were thawed and inoculated in the appropriate liquid broth for 24 h at 37 °C with mild agitation. A dilution from these culture solutions was used for the following tests, corresponding to an inoculum of 1 × 10^7 CFU/mL. Stock solutions of all the tested compounds were prepared in DMSO at a concentration of 100 mg/mL, aliquoted, and stored at −20 °C. (A) Bacterial growth inhibition assay: Conditions here described are for testing 6 different concentrations of the compounds, with triplicates of each condition. Therefore, 4 compounds were tested per plate. An adapted version of the microdilution method was used. Firstly, the imidazole derivatives were dissolved in the corresponding broth at 2× the highest tested concentration. Then, 100 μL of the 2× solutions were added to the first (A) and second (B) row wells of a 96-well plate. In addition, 100 μL of liquid medium had been previously added to rows B to F. Subsequent dilutions at 1:2 are prepared in rows B to F, by withdrawal of 100 μL from the previous row (more concentrated) to the next row (half diluted), mixing well. Then, 100 μL were discarded from the last row (F). By now, there are 100 μL in each well, and 100 μL of bacterial suspension at 10^7 CFU/mL were added to each well. Then, the 96-well plates were incubated for 24 h at 37 °C under mild agitation. Bacterial growth was controlled both by visual observation of the turbidity in each well and by measuring the optical density (OD) at 560 nm at time 0 h and 24 h. Results are recorded as the lowest concentration of antimicrobial agent that inhibits visible growth of the bacteria, and were compared with the OD variation of a control culture containing E. coli or B. subtilis (+ control) and of solution of the tested compounds without bacteria (- control).

Escherichia coli DH5α = assay: as above; type: cell-based; conditions: read-out: E. coli MIC
Protocol: as §1

[1] = Critical aggregation concentration by pyrene fluorescence (I1/I3); type: physicochemical; conditions: for CAC Fluorescence, CCM:W, CAC1 / CAC Fluorescence, CCM:W, CAC2: 1/1 bacterial cell culture medium/water; for CAC Fluorescence, CCM:W, CAC1 / CAC Fluorescence, CCM:W, CAC2 / CAC Fluorescence, W: 25 °C; for CAC Fluorescence, CCM:W, CAC1: first break point; for CAC Fluorescence, CCM:W, CAC2: second break point; for CAC Fluorescence, W: in water, from the break point
Source text: To investigate the microenvironment of the critical aggregation concentration (CAC) for self-assembly in water and in the bacterial cell culture medium by fluorescence, the intensity ratio of two of the peaks (I1/I3) of the pyrene fluorescence spectrum was used. Plots of the pyrene I1/I3 ratio as a function of the total surfactant concentration show a typical sigmoidal decrease in the region where self-assembly takes place. At low concentrations, this ratio is larger as it corresponds to a polar environment for pyrene. When the surfactant concentration increases this ratio decreases rapidly, as the self-assembly favors the location of pyrene in a more hydrophobic environment, until reaching a roughly constant value because of the full incorporation of the probe into the hydrophobic region of the aggregates. Different approaches have been used to estimate CAC values from I1/I3 ratios. The most common approach is the use of the break points, either directly or by extrapolating the values from the intersection of the two straight lines defined at the constant and variable regions of the I1/I3 sigmoidal curve. As CAC represents the threshold of concentration at which self-aggregation starts, the corresponding value can be estimated from the break point at lower concentration (see Figures S9–S14). Fluorescence studies were carried out using MilliQ® water and 1/1 MilliQ® water/bacterial cell culture medium, because with the pure cell culture medium, a strong broad fluorescence emission band was observed precluding an accurate analysis. […] The corresponding CACs obtained in water and in the 1/1 mixture of water/bacterial cell culture medium by fluorescence are shown in Table 2. Pyrene was used as a fluorescence probe to determine the CAC of the compounds in water and 1/1 water/bacterial cell culture medium at 25 ± 1 °C. Fluorescence measurements were performed with a Spex Fluorolog 3-11 instrument equipped with a 450 W xenon lamp (right angle mode). Firstly, a stock pyrene solution of 1.98 × 10^−4 mol/L was prepared in ultrapure methanol. Then, solutions of the imidazole and imidazolium salt compounds (ranging from 6 to 3 × 10^−3 mmol/L) were prepared in different vials and 5 μL of pyrene solution was transferred into the vials, reaching a final pyrene concentration of 9.89 × 10^−7 mol/L in each vial. Fluorescence spectra of pyrene were recorded from 200 to 650 nm after excitation at 337 nm, and the spectra were not corrected for the Xe lamp spectral response. The slit width was set at 5 nm for both excitation and emission. The peak intensities at 373 and 385 nm were determined as I1 and I3, respectively. The ratios of the peak intensities at 373 and 385 nm (I1/I3) for the emission spectra were recorded as a function of the logarithm of concentration. The CAC values were taken from the break point. Samples were excited with a 337 nm NanoLED.

[2] = 24 h, 37 °C, nutrient broth, minimum of three experiments
[3] = mode of at least three experiments
[4] = 24 h, 37 °C, LB medium, minimum of three experiments
[5] = bacterial cell culture medium/water

SMILES | MIC (Bacillus subtilis 1904-E; [2]) [µg/mL] | MIC (Bacillus subtilis 1904-E; [3]) [µM] | MIC (Escherichia coli DH5α; [4]) [µg/mL] | MIC (Escherichia coli DH5α; [3]) [µM] | CAC Fluorescence, CCM:W, CAC1 [1] [mM] | CAC Fluorescence, CCM:W, CAC2 [1] [mM] | CAC Fluorescence, W [1] [mM] | first break point (I1/I3 vs concentration) [1, 5] [µM] | second break point (I1/I3 vs concentration) [1, 5] | MIC (Bacillus subtilis 1904-E; 24 h, mode of at least three experiments) [µM]
CCCCCCCCCCCCNC(=O)[C@H](C(C)C)n1ccnc1 [Compound 1a] | 16 | 48 | > 2000 | > 6000 | 0.004 | 0.045 | 0.085 | – | – | –
CCCCCCCCCCCCNC(=O)[C@H](C(C)C)n1cc[n+](Cc2ccccc2)c1 [Compound 1b] | 4 | 9 | 128 | 288 | 0.006 | 0.048 | 0.084 | 6 | ca. 48 μM | –
CCCCCCCCCCCCNC(=O)[C@H](C(C)C)n1cc[n+](Cc2cccc(C[n+]3ccn([C@@H](C(=O)NCCCCCCCCCCCC)C(C)C)c3)c2)c1 [Compound 1c] | 16 | 19 | 256 | 269 | 0.016 | 0.21 | 0.010 | – | – | –

Results, then the compound that gave them:

MIC (Bacillus subtilis 1904-E; [2]) [µg/mL] | MIC (Bacillus subtilis 1904-E; [3]) [µM] | MIC (Escherichia coli DH5α; [4]) [µg/mL] | MIC (Escherichia coli DH5α; [3]) [µM] | CAC Fluorescence, CCM:W, CAC1 [1] [mM] | CAC Fluorescence, CCM:W, CAC2 [1] [mM] | CAC Fluorescence, W [1] [mM] | first break point (I1/I3 vs concentration) [1, 5] [µM] | second break point (I1/I3 vs concentration) [1, 5] | MIC (Bacillus subtilis 1904-E; 24 h, mode of at least three experiments) [µM] | SMILES
> 2000 | > 9000 | > 2000 | > 9000 | 2.89 | 5.4 | 4.31 | – | – | – | CCCCNC(=O)[C@H](C(C)C)n1ccnc1 [Compound 2a]
> 1000 | – | > 2000 | > 5000 | 3.46 | 8.4 | 4.57 | – | – | 2590 | CCCCNC(=O)[C@H](C(C)C)n1cc[n+](Cc2ccccc2)c1 [Compound 2b]
128 | 180 | 1000 | 1440 | 2.25 | 3.54 | 2.34 | – | – | – | CCCCNC(=O)[C@H](C(C)C)n1cc[n+](Cc2cccc(C[n+]3ccn([C@@H](C(=O)NCCCC)C(C)C)c3)c2)c1 [Compound 2c]
16 | 42 | 1000 | 2660 | 0.018 | 0.325 | 0.033 | – | – | – | CCCCCCCCCCCCNC(=O)[C@H](Cc1ccccc1)n1ccnc1 [Compound 3a]
4 | 7 | 32 | 57 | 0.063 | 0.33 | 0.098 | – | – | – | CCCCCCCCCCCCNC(=O)[C@H](Cc1ccccc1)n1cc[n+](Cc2ccccc2)c1 [Compound 3b]
64 | 62 | 2000 | 1990 | – | – | – | – | – | – | CCCCCCCCCCCCNC(=O)[C@@H](Cc1ccccc1)n1cc[n+](Cc2cccc(C[n+]3ccn([C@@H](Cc4ccccc4)C(=O)NCCCCCCCCCCCC)c3)c2)c1 [Compound 3c]
